Reference: patent publication US20260325559A1, “Immune Activator Agent” (Oryza Oil & Fat Chemical Co., Ltd., priority 2023, published 2026)

Key:
[1] = tested on: iMylc® cells (immature myeloid cells induced by differentiation from iPS cells), IL-6 production; assay: IL-6 production activity in iMylc cells (immature dendritic cells); assay type: cell-based, human; settings: 20 h, 37 °C, 5% CO2, DMSO 0.1% (v/v), ELISA of culture supernatant, FIG. 1
Description: In this experiment, iMylc® cells (immature myeloid cells induced by differentiation from iPS cells) purchased from Mycen Technologies Inc. were used. These cells were cultured and subjected to evaluation tests using the dedicated maintenance medium for iMylc® cells provided by Mycen Technologies Inc.
The iMylc® cells were seeded into 96-well plates (1.0×10^4 cells/well/100 μL). After adding 100 μL/well of medium containing the test substance, the cells were incubated for 20 hours at 37 °C under 5% CO2. The final concentration of DMSO was adjusted to 0.1% (v/v). After incubation, the amount of IL-6 produced in the culture supernatant was measured using a commercially available kit (Human IL-6 ELISA MAX™ Deluxe Set, BioLegend) in accordance with the manufacturer's instructions.

[2] = tested on: CD4-positive helper T cells (human PBMCs cocultured with αMylc® cells); assay: Mixed lymphocyte reaction (MLR), helper T cell proliferation induced by αMylc cells; assay type: cell-based; settings: 10 μM; αMylc cells treated 24 h, MLR coculture 7 days; N=3; FIG. 5
Description: The test was conducted using a mixed lymphocyte reaction (MLR). In this method, αMylc® cells (derived from human peripheral blood) that had shown IL-6 production-promoting activity were treated with GlcCer[d18:2(4E,8Z)/18:0], GlcCer[t18:1(8Z)/20:0], GlcCer[d18:2(4E,8Z)/20:0], or GlcCer[d18:2(4E,8Z)/26:0] at concentrations of 1 or 10 μM for 24 hours.
During this period, peripheral blood mononuclear cells (PBMCs) isolated from human blood were labeled with the cell membrane-permeable dye carboxyfluorescein diacetate succinimidyl ester (CFDA-SE) by incubation for 7 minutes. After staining, αMylc® cells and PBMCs were mixed at a 1:2 ratio (2×10^4 cells: 4×10^4 cells) and cocultured for 7 days.
Subsequently, the mean fluorescence intensity (MFI) of CD4 (APC-stained; helper T cell marker) and CFDA (cell proliferation indicator) was quantified by flow cytometry (N=3). In the present MLR assay, the activation index was defined as the proliferation rate of helper T cells, and the gating strategy used in this analysis is shown in FIG. 4.

SMILES: CCCCCCCCC/C=C\CC/C=C/[C@@H](O)[C@H](CO[C@@H]1O[C@H](CO)[C@@H](O)[C@H](O)[C@H]1O)NC(=O)[C@H](O)CCCCCCCCCCCCCCCCCCCCCCCC [GlcCer[d18:2(4E,8Z)/26:0]]
- IL-6 production [1]: significant activity
- T-cell proliferation rate [2]: a significant increase in T-cell proliferation rate

SMILES: CCCCCCCCC/C=C\CCC[C@@H](O)[C@@H](O)[C@H](CO[C@@H]1OC(CO)[C@@H](O)[C@@H](O)C1O)NC(=O)[C@H](O)CCCCCCCCCCCCCCCCCC (stereo partly shown) [GlcCer[t18:1(8Z)/20:0]]
- IL-6 production [1]: significant activity

SMILES: CCCCCCCCCCCCCCCCCCCCC(O)C(=O)N[C@@H](CO)[C@H](O)[C@H](O)CCCCCCCCCCCCCC (stereo partly shown) [Cer[t18:0/22:0]]
- IL-6 production [1]: significant activity
